The record followed here is BindingDB's records for patent US12427146 (Inventisbio Co., 2025).

For experiment [1], the target named is Tyrosine-protein kinase Lck (Homo sapiens, UniProt P06239). Briefly: LCK Inhibition Assay. How it is done: Test compound was dissolved in DMSO at 10 mM. 45 uL of compound was transfer into a 384-well compound source plate (LABCYTE cat #P-05525) and serially diluted at 1:3 ratio to create a 11-point dilutions. The same volume of DMSO was adopted as high control. 20 nL of these compounds DMSO dilutes were dispensed into a new 384-well assay plate by Echo 550. LCK protein (0.50 nM, Cama Biosciences, cat #08-170), florescent labeled substrate FLPeptide4 (2 μM, PerkinElmer, cat #760348) was prepared in kinase assay buffer (50 mM HEPES (pH 7.5), 10 mM MgCl2, 0.01% Brij-35, 2 mM DTT and 0.005 mg/ml BSA). 15 uL of kinase assay buffer containing LCK protein and substrate was transferred to assay plate and incubate at RT for 30 minutes. Kinase assay buffer supplemented with substrate peptides was employed as low control to monitor the background. 400 μM ATP was prepared in kinase assay buffer and 5 μL of ATP solution was added to each well to start the reaction. The assay plate was incubated at 25° C. for 90 minutes and the reaction was stopped by adding 40 μL of 0.5 M EDTA.
Sequence of Tyrosine-protein kinase Lck (P06239 whole entry): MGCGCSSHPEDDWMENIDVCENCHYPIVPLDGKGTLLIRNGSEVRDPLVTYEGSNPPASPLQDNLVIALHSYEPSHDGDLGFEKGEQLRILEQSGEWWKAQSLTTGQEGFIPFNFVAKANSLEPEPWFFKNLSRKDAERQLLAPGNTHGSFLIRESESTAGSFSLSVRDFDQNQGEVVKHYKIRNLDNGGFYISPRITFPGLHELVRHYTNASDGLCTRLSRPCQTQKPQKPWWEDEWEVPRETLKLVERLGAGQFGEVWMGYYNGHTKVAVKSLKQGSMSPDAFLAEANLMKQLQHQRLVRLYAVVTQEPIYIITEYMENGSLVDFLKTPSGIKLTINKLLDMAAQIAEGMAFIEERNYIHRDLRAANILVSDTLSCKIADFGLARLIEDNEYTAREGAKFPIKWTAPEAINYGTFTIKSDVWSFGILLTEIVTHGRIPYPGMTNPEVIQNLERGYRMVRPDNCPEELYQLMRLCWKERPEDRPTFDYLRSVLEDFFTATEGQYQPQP

The target of experiment [2] is Tyrosine-protein kinase CSK (Homo sapiens, UniProt P41240). Description: CSK Inhibition Assay. How it is done: Test compound was dissolved in DMSO at 10 mM. 45 uL of compound was transferred into a 384-well compound source plate (LABCYTE cat #P-05525) and serially diluted at 1:3 ratio to create a 11-point dilutions. The same volume of DMSO was adopted as high control. 20 nL of these compounds DMSO dilutes were dispensed into a new 384-well assay plate by Echo 550. […] 15 uL of kinase assay buffer containing CSK protein and substrate was transferred to assay plate and incubated at RT for 30 minutes. Kinase assay buffer supplemented with substrate peptides was employed as low control to monitor the background. 4 μM of ATP was prepared in kinase assay buffer and 5 μL of ATP solution was added to each well to start the reaction. The assay plate was incubated at 25° C. for 90 minutes and the reaction was stopped by adding 40 μL of 0.5 M EDTA.
Sequence of Tyrosine-protein kinase CSK (P41240 whole entry): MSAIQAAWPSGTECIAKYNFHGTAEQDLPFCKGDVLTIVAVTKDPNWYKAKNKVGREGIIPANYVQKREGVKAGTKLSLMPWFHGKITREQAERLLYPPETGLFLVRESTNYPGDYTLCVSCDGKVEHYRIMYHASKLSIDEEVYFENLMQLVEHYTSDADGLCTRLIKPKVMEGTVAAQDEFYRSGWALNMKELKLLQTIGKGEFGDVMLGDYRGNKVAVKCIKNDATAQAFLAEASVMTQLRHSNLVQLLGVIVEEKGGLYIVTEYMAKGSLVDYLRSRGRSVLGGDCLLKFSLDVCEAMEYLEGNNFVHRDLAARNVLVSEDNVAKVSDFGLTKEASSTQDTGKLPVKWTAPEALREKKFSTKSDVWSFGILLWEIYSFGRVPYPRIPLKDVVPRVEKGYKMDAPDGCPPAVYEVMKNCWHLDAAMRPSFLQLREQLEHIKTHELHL

In general, IC50 refers to the point on the concentration scale where inhibition reaches its midpoint. Higher therefore signals a need for much substance. Turning to `Nc1nccc(-c2sc(-c3ccccc3)nc2-c2cc(F)cc(NS(=O)(=O)c3c(F)cccc3F)c2)n1` [US12427146, Compound 20], the IC50 in experiment [1] was above 1000 nM; in experiment [2], 132 nM.
Molecule `COc1cc(NS(=O)(=O)c2c(F)cccc2F)cc(-c2nc(-c3cncc(F)c3)sc2-c2ccnc(N)n2)c1` [US12427146, Compound 21] returned an IC50 in experiment [2] of 25.2 nM.
As to `COc1cc(F)c(S(=O)(=O)Nc2cccc(-c3nc(-c4ccccc4)sc3-c3ccnc(N)n3)c2F)c(F)c1` [US12427146, Compound 22], the IC50 in experiment [1] is above 1000 nM; in experiment [2] it was 44.8 nM.
The corresponding values for `COc1cc(NS(=O)(=O)c2c(F)cccc2F)c(F)c(-c2nc(-c3ccccc3)sc2-c2ccnc(N)n2)c1` [US12427146, Compound 23] are below 100 nM and 4.1 nM.
In turn, `Nc1nccc(-c2sc(-c3ccccc3)nc2-c2cccc(NS(=O)(=O)c3ccc4c(c3)CNC4=O)c2F)n1` [US12427146, Compound 81] came in with an IC50 in experiment [2] of 4510 nM.
The same measure, in the same setting: to `Nc1nccc(-c2sc(-c3ccccc3)nc2-c2cccc(NS(=O)(=O)c3ccc4c(c3)CNC4)c2F)n1` [US12427146, Compound 82] belongs above 10000 nM.
